In brackets after ≈: the same amount, converted by molar mass.
Key:
[1] = system: Staphylococcus aureus strain MN8; assay: MIC and MBC assay, broth dilution with plate counts; type: cell-based; settings: for minimum bactericidal concentration (MBC) / minimum inhibitory concentration (MIC): Staphylococcus Aureus MN8 strain, 24-hour incubation, Todd Hewitt broth, aerobic 37° C.; for activity compared with GML (log CFU/mL, FIGS. 1A and 1B): staphylococcus aureus MN8 cultured with various concentrations
Procedure: For this experiment, all cultures were aerobic at 37° C. with 150 RPM gyrotary shaking. Stationary phase with this microbe is 1.0x1010 colony-forming units (CFUs)/ml. The next morning the culture was diluted to approximately 5x10^6/ml in 1 ml amounts of Todd Hewitt broth in 5 ml polystyrene test tubes. The tubes contained serial two-fold dilutions of glycerol monolaurate, SGML, or […]. The control tubes contained no GML or SGML and […] compounds. The compounds were tested in triplicate. […] The control tube contained the highest volume of ethanol that was used to deliver the compounds to each 1 ml test tube. […] Once plated, the plates were incubated aerobically for 24 hours at 37° C. Counts were made to determine CFUs/ml. The CFUs/ml were log-transformed and mean ± SD were determined. Using the standard MIC and MBC assay above with staphylococcus aureus strain […] and […] were tested with GML.

TSST-1 = type: cell-based, Staphylococcus aureus
Escherichia coli [2] = assay: MIC and MBC test with E. coli; type: cell-based; settings: for effectiveness compared with GML (FIG. 3): E. coli MIC and MBC test; for Minimum Inhibitory Concentration / Mininum Bactericidal Concentration: E. coli laboratory strain from a patient with urinary tract infection, same conditions as S. aureus MN8
Procedure: The conditions for this test were the same as in the above example with S. aureus MN8. The E. coli strain was a laboratory strain from a patient with a confirmed urinary tract infection. The strain is maintained in the laboratory at -80° C.

[3] = system: Lipase (glycerol ester hydrolase); assay: Lipase (glycerol ester hydrolase) assay, esterase resistance; type: biochemical, Staphylococcus aureus; settings: 500 ug/ml compound; lipase 25 ug/ml; 24 hours at 37° C.
Procedure: Protocol for Lipase (glycerol ester hydrolase) assay: • 1. Two separate samples of lipase at 25 ug/ml were prepared. • 2. Microscope slides were made up with 500 ug/ml of GML, SGML, or S2ML compounds. • These slides contained 0.85% agarose (Difco) heat solubilized into PBS (0.005 M NaPO4 pH 7.2; 0.15MNaC1). • 3. The mixtures contained the compounds above their solubility limits, so they were vortexed, and 4.5 ml of the cloudy mixtures was spread onto microscope slides. • 4. The slides remained at room temperature for 1 hour to allow the agarose to solidify. • 5. The, 4 mm wells were punched into the agarose, twice per slide. • 6. 20 ul of the Lipase was added to each well. • 7. The slides were incubated for 24 hours at 37° C. • 8. The diameter squared was determined for each. This allows determination of hydrolysis of compound. • GML: 15 mm; 15 mm diameters (diameters squared=225 mm) • SGML: 12 mm; 13 mm diameters (diameters squared=144 mm and 169 mm for an average of 156.5 mm) • S2GML: 0 mm; 0 mm diameters (diameters squared=0) • 10. Diameter squared is used to the determination would be a straight line with a standard curve. • Set GML at 100% • 11. SGML is 70% as much as GML • 12. S2GML is 0% of GML

Bacillus subtilis = assay: MIC/MBC at 24 hours; type: cell-based; settings: Time 0 1.1E+07 CFU/ml, 200 RPM shaking at 37° C.
Procedure: Bacillus subtilis, an aerobic spore-former, was incubated with 200 RPM shaking at 37° C. The strain was a recent clinical isolate at the University of Iowa, and proves to develop resistance to standard […] agents.
(§1) All solutions used in the MBC and MIC studies were prepared from a stock of 100 mg/ml of either GML, SGML or S2GML in absolute ethanol.

[4] = system: Streptococcus pyogenes (Group A streptococcus) 594; assay: MIC/MBC at 24 hours; type: cell-based; settings: Streptococcus pyogenes GAS 594, Time 0 2.7E+06 CFU/ml, stationary at 37° C. in 5% CO2
Procedure: Streptococcus pyogenes (Group A streptococcus) 594 is a standard scarlet fever strain that has been extensively published on. The strain was incubated stationary at 37° C. in 5% CO2.
as §1

Candida auris = assay: MIC/MBC at 24 hours; type: cell-based; settings: Time 0 4.5E+05 CFU/ml
Procedure: Candida auris is a newly emerging yeast (fungus) that is causing skin and bloodstream infections in humans. It easily becomes resistant to anti-fungal agents, making development of novel therapeutics a necessity. This organism is related to Candida albicans and other Candida species. The MIC and MBC in the above table show very good activity of both the SGML and S2GML versus this organism.
as §1

S. aureus strains = assay: Susceptibility of S. aureus strains to GML; type: cell-based, Staphylococcus aureus
[5] = system: other Gram-positive bacteria and Gram-negative bacteria with an incomplete lipopolysaccharide; assay: Killing of other bacteria by GML; type: cell-based; settings: other Gram-positive bacteria and Gram-negative bacteria with lipo-oligosaccharide
[6] = system: Gram-negative bacteria with an intact lipopolysaccharide, such as Escherichia coli; assay: Killing of Gram-negative bacteria with intact lipopolysaccharide by GML; type: cell-based
[7] = system: glycerol ester hydrolase (lipase); assay: Lipase production by S. aureus in presence of GML; type: cell-based, Staphylococcus aureus; settings: S. aureus strains
Staphylococcus aureus = settings: Gram Positive; Aerobe; 54 strains tested; cited from earlier work
Streptococcus pyogenes = settings: Gram Positive; Aerotolerant Anaerobe; 4 strains tested; cited from earlier work
Streptococcus agalactiae = settings: Gram Positive; Aerotolerant Anaerobe; 3 strains tested; cited from earlier work
Group C Streptococcus = settings: Gram Positive; Aerotolerant Anaerobe; 1 strain tested; cited from earlier work
Group F Streptococcus = settings: Gram Positive; Aerotolerant Anaerobe; 1 strain tested; cited from earlier work
Group G Streptococcus = settings: Gram Positive; Aerotolerant Anaerobe; 1 strain tested; cited from earlier work
Streptococcus suis = settings: Gram Positive; Aerotolerant Anaerobe; 1 strain tested; cited from earlier work
Streptococcus sanguinis = settings: Gram Positive; Aerotolerant Anaerobe; 1 strain tested; cited from earlier work
[8] = system: Streptococcus pneumoniae Serotype III; settings: Gram Positive; Aerotolerant Anaerobe; 2 strains tested; cited from earlier work
Enterococcus faecalis = settings: Gram Positive; Aerotolerant Anaerobe; 1 strain tested; cited from earlier work
Listeria monocytogenes = settings: Gram Positive; Aerobe; 1 strain tested; cited from earlier work
[9] = system: Bacillus anthracis Sterne; settings: Gram Positive; Aerobe; 1 strain tested; cited from earlier work
Bacillus cereus = settings: Gram Positive; Aerobe; 1 strain tested; cited from earlier work
[10] = system: Peptostreptococcus species; settings: Gram Positive; Anaerobe; 1 strain tested; cited from earlier work
Clostridium perfringens = settings: Gram Positive; Anaerobe; 1 strain tested; cited from earlier work
Neisseria gonorrhoeae = settings: Gram Negative; Aerobe; 1 strain tested; cited from earlier work
[11] = system: Haemophilus influenza Non-typable; settings: Gram Negative; Aerobe; 2 strains tested; cited from earlier work
Gardnerella vaginalis = settings: Gram Negative; Aerobe; 2 strains tested; cited from earlier work
Campylobacter jejuni = settings: Gram Negative; Aerobe; 1 strain tested; cited from earlier work
[12] = system: Bordetella bronchiseptica; settings: Gram Negative; Aerobe; 1 strain tested; cited from earlier work
Pseudomonas aeruginosa = settings: Gram Negative; Aerobe; 1 strain tested; cited from earlier work
Burkholderia cenocepacia = settings: Gram Negative; Aerobe; 1 strain tested; cited from earlier work
Pasteurella multocida = settings: Gram Negative; Aerobe; 1 strain tested; cited from earlier work
[13] = system: Prevotella melaninogenica; settings: Gram Negative; Anaerobe; 1 strain tested; cited from earlier work
Bacteroides fragilis = settings: Gram Negative; Anaerobe; 2 strains tested; cited from earlier work
Fusobacterium species = settings: Gram Negative; Anaerobe; 1 strain tested; cited from earlier work
Escherichia coli [14] = settings: Gram Negative; Aerobe; 2 strains tested; cited from earlier work
Salmonella Minnesota = settings: Gram Negative; Aerobe; 1 strain tested; cited from earlier work
Enterobacter aerogenes = settings: Gram Negative; Aerobe; 1 strain tested; cited from earlier work
Proteus vulgaris = settings: Gram Negative; Aerobe; 1 strain tested; cited from earlier work
Shigella sonnei = settings: Gram Negative; Aerobe; 1 strain tested; cited from earlier work
Klebsiella pneumoniae = settings: Gram Negative; Aerobe; 1 strain tested; cited from earlier work
Mycobacterium phlei = settings: Acid Fast; Aerobe; 1 strain tested; cited from earlier work
[15] = system: Mycobacterium tuberculosis; settings: Acid Fast; Aerobe; 1 strain tested; cited from earlier work
Mycoplasma hominis = settings: Cell Wall deficient; Aerobe; 1 strain tested; cited from earlier work
[16] = system: Escherichia coli (e. coli); settings: Welch et al., mBio 2020; cited from earlier work

## CCCCCCCCCCCC(=S)SCC(O)CO (stereo not drawn) [Example S2GML, glycerol dithionomonolaureate]
[1]
  minimum bactericidal concentration (MBC): 63.5 µg/mL (≈ 207 µM)
  minimum inhibitory concentration (MIC): 31.125 µg/mL (≈ 102 µM)
  activity compared with GML (log CFU/mL, FIGS. 1A and 1B): clearly has more activity
TSST-1
  inhibition of TSST-1: < 4 µg/mL
Escherichia coli [2]
  effectiveness compared with GML (FIG. 3): performed similarly to GML
  Minimum Inhibitory Concentration: 500 µg/mL
  Mininum Bactericidal Concentration: 500 µg/mL
[3]
  hydrolysis as % of GML (diameter squared, GML set at 100%): 0%
Bacillus subtilis
  MIC/MBC: <1.0 µg/mL
[4]
  MIC/MBC: <0.1 µg/mL
Candida auris
  MIC/MBC: 1.0 µg/mL (≈ 3.26 µM)

## CCCCCCCCCCCC(=O)OCC(O)CO (stereo not drawn) [GML, glycerol monolaureate]
[1]; Staphylococcus aureus, MN8, 24 h, read-out: minimum bactericidal concentration (MBC)
  MBC: 250 µg/mL (≈ 911 µM)
[1]; Staphylococcus aureus, MN8, 24 h, read-out: minimum inhibitory concentration (MIC)
  MIC: 250 µg/mL (≈ 911 µM)
TSST-1
  inhibition of TSST-1: 16 µg/mL
Escherichia coli [2]
  Mininum Bactericidal Concentration: 500 µg/mL
Escherichia coli [2]; Escherichia coli, read-out: Minimum Inhibitory Concentration
  MIC: 500 µg/mL (≈ 1820 µM)
Bacillus subtilis
  MIC/MBC: 50 µg/mL (≈ 182 µM)
[4]
  MIC/MBC: 1.0 µg/mL (≈ 3.64 µM)
Candida auris
  MIC/MBC: 50 µg/mL (≈ 182 µM)
S. aureus strains; all strains of S. aureus tested
  concentration to which all S. aureus strains tested remain susceptible: ≤ 500 µg/mL
S. aureus strains; most S. aureus strains
  bactericidal concentration: 250 µg/mL
[5]
  concentrations that kill: 25 to 50 µg/mL
[6]; with accelerants: low pH and EDTA addition
  concentration that kills: 25 to 50 µg/mL
[6]; without accelerants
  susceptibility to GML: completely resistant
[7]
  GML concentration at which lipase cannot be produced: about 300 µg/ml
Staphylococcus aureus
  Average Bactericidal Concentration: 300 mg/mL
Streptococcus pyogenes
  Average Bactericidal Concentration: 30 mg/mL
Streptococcus agalactiae
  Average Bactericidal Concentration: 30 mg/mL
Group C Streptococcus
  Average Bactericidal Concentration: 30 mg/mL
Group F Streptococcus
  Average Bactericidal Concentration: 20 mg/mL
Group G Streptococcus
  Average Bactericidal Concentration: 50 mg/mL
Streptococcus suis
  Average Bactericidal Concentration: 50 mg/mL
Streptococcus sanguinis
  Average Bactericidal Concentration: 50 mg/mL
[8]
  Average Bactericidal Concentration: 10 mg/mL
Enterococcus faecalis
  Average Bactericidal Concentration: 100 mg/mL
Listeria monocytogenes
  Average Bactericidal Concentration: 50 mg/mL
[9]
  Average Bactericidal Concentration: 50 mg/mL
Bacillus cereus
  Average Bactericidal Concentration: 50 mg/mL
[10]
  Average Bactericidal Concentration: 1 mg/mL
Clostridium perfringens
  Average Bactericidal Concentration: 1 mg/mL
Neisseria gonorrhoeae
  Average Bactericidal Concentration: 20 mg/mL
[11]
  Average Bactericidal Concentration: 50 mg/mL
Gardnerella vaginalis
  Average Bactericidal Concentration: 10 mg/mL
Campylobacter jejuni
  Average Bactericidal Concentration: 1 mg/mL
[12]
  Average Bactericidal Concentration: 1 mg/mL
Pseudomonas aeruginosa
  Average Bactericidal Concentration: Not Susceptible
Burkholderia cenocepacia
  Average Bactericidal Concentration: 500 mg/mL
Pasteurella multocida
  Average Bactericidal Concentration: 500 mg/mL
[13]
  Average Bactericidal Concentration: 50 mg/mL
Bacteroides fragilis
  Average Bactericidal Concentration: 50 mg/mL
Fusobacterium species
  Average Bactericidal Concentration: 50 mg/mL
Escherichia coli [14]
  Average Bactericidal Concentration: Not Susceptible
Salmonella Minnesota
  Average Bactericidal Concentration: Not Susceptible
Enterobacter aerogenes
  Average Bactericidal Concentration: Not Susceptible
Proteus vulgaris
  Average Bactericidal Concentration: Not Susceptible
Shigella sonnei
  Average Bactericidal Concentration: Not Susceptible
Klebsiella pneumoniae
  Average Bactericidal Concentration: Not Susceptible
Mycobacterium phlei
  Average Bactericidal Concentration: 100 mg/mL
[15]
  Average Bactericidal Concentration: 100 mg/mL
Mycoplasma hominis
  Average Bactericidal Concentration: 1 mg/mL
[16]
  effectiveness against Escherichia coli: not effective

## CCCCCCCCCCCC(=S)OCC(O)CO (stereo not drawn) [SGML, glycerol thionomonolaureate]
[1]
  minimum bactericidal concentration (MBC): 125 µg/mL (≈ 430 µM)
  minimum inhibitory concentration (MIC): 125 µg/mL (≈ 430 µM)
  activity compared with GML (log CFU/mL, FIGS. 1A and 1B): more active than GML
TSST-1
  inhibition of TSST-1: 8 µg/mL
Escherichia coli [2]
  effectiveness compared with GML (FIG. 3): more effective than GML
  Minimum Inhibitory Concentration: 250 µg/mL
  Mininum Bactericidal Concentration: 250 µg/mL
[3]
  hydrolysis as % of GML (diameter squared, GML set at 100%): 70%
Bacillus subtilis
  MIC/MBC: 10 µg/mL (≈ 34.4 µM)
[4]
  MIC/MBC: 0.1 µg/mL (≈ 0.344 µM)
Candida auris
  MIC/MBC: 10 µg/mL (≈ 34.4 µM)
